Measurements as given in article PMC6225212, “Synthesis and Pharmacological Evaluation of Novel Silodosin-Based Arylsulfonamide Derivatives as α1A/α1D-Adrenergic Receptor Antagonist with Potential Uroselective Profile” (Molecules : A Journal of Synthetic Chemistry and Natural …, 2018).

Experiments:
[1] = In vitro metabolic stability in rat-liver microsomes (RLM); type: in vitro ADME
Experimental: In vitro biotransformation assays of selected compounds 9 and 10 were performed using rat-liver microsomes (RLM), potassium-phosphate buffer, NADPH-regenerating system (NADP, glucose-6-phosphate, glucose-6-phosphate dehydrogenase), and levallorphan as internal standard, according to the previously published procedure. Compound I and the drug tamsulosin were used as reference standard. UPLC/MS analysis (Waters Corporation, Milford, MA, USA) was performed to determine the quantity of the starting material left in solution. The in vitro half-time (t1/2) for test compounds was determined from the slope of the linear regression of ln % parent compound remaining versus incubation time. The calculated t1/2 was incorporated into the following equation to obtain intrinsic clearance: (Clint) = (volume of incubation [µL]/protein in the incubation [mg]) × 0.693/t1/2.
Metabolic stability of tested compound was analyzed using incubation systems, composed of: tested compounds (10 μM), RLMs (microsomes from rat male liver, pooled; 0.2 mg/mL; Sigma Aldrich), NADPH-regenerating system (NADP+, glucose-6-phosphate and glucose-6-phosphate dehydrogenase in 100mM potassium buffer, pH 7.4; all from Sigma Aldrich), and potassium buffer, pH 7.4. […] Firstly, all samples contained incubation mixture (without NADPH-regenerating system) were preincubated in a thermoblock at 37 °C for 10 min. Then reaction was initiated by the addition of NADPH-regenerating system. In control samples NADPH-regenerating system was replaced with potassium buffer. Probes were incubated in thermoblock for 15 and 30 min at 37 °C. After addition of internal standard (levallorphan, 10 μM), the biotransformation process was stopped by addition of perchloric acid (69–72%, by volume). Next, samples were centrifuged (Centrifuge 5427 R, Eppendorf, Hamburg, Germany) and supernatants were analyzed using UPLC/MS (Waters Corporation). All experiments were run in duplicates. Half-life time was evaluated using a nonlinear regression model using Graph Pad Prism software (Graph Pad Software, La Jolla, San Diego, CA, USA) and intrinsic clearance was calculated from the equation Clint = (volume of incubation [μL]/protein in the incubation [mg]) ×∙0.693/t1/2 [33].

[2] = molecular target: T1, α1D-ARs (Homo sapiens, UniProt P25100); parameters: method as in PMID 27658792; key to α1D Profile: ANT—antagonist; AGO—agonist; conditions: cited from earlier work
T1 sequence (P25100 1-572): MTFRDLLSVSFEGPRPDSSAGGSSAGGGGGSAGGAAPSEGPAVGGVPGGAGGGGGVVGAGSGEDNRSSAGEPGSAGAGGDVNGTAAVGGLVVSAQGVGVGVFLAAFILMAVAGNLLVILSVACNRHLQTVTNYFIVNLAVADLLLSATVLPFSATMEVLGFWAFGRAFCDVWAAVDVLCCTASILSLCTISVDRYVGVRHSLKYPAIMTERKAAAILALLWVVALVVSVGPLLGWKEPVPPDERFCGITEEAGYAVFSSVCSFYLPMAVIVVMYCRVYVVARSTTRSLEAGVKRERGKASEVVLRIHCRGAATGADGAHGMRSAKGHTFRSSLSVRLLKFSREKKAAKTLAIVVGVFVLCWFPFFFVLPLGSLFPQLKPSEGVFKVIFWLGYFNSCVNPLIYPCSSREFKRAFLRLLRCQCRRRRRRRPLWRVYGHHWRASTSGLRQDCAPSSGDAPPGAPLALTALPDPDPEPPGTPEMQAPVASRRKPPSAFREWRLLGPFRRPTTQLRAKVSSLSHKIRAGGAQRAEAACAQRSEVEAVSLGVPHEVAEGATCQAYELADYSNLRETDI

[3] = molecular target: T2, α1B-ARs (Homo sapiens, UniProt P35368); parameters: method as in PMID 27658792; key to α1B Profile: ANT—antagonist; AGO—agonist; conditions: cited from earlier work
T2 sequence (P35368 1-520): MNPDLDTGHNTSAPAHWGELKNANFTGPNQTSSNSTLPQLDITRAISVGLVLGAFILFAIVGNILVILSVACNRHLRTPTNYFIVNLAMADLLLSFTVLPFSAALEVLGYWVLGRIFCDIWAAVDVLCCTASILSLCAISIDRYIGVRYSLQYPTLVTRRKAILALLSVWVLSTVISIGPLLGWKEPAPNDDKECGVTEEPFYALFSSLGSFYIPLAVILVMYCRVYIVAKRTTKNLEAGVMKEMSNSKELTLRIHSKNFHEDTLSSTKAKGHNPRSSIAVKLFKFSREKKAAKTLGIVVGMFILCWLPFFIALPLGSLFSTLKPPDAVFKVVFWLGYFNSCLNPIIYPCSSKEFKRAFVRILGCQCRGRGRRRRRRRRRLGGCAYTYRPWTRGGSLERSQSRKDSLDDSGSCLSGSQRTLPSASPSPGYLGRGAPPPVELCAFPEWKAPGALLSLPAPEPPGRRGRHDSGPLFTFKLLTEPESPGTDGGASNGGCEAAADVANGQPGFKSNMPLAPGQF

[4] = molecular target: T3, α1A-ARs (Homo sapiens, UniProt P35348); parameters: method as in PMID 27658792; key to α1A Profile: ANT—antagonist; AGO—agonist; conditions: cited from earlier work
T3 sequence (P35348 1-466): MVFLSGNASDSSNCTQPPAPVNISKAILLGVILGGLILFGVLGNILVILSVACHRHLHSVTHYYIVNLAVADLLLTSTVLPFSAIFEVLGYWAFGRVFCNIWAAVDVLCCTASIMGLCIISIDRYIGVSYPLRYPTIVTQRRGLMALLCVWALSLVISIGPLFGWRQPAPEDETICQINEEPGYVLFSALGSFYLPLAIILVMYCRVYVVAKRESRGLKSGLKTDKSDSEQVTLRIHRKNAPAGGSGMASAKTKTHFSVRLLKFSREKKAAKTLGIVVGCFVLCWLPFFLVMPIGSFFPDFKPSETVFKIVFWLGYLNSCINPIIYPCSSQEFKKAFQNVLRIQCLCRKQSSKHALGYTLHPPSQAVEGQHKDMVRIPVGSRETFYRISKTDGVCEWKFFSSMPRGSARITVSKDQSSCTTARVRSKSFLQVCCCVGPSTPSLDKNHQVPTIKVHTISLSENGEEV

[5] = molecular target: α2-ARs; parameters: method as in PMID 27658792; conditions: [3H]-Clonidine, rat cerebral cortex; ± SEM; cited from earlier work

CC(C)Oc1ccccc1OCCN1CCC(CNS(=O)(=O)c2cccc(Cl)c2F)CC1 [Compound I]
Major Metabolic Pathway ([1]; RLM): N-dealkylation | microsomal CLint at 10 μM ([1]; male, rat, rat liver microsomes, pH 7.4, RLM 0.2 mg/mL, compound 10 μM, 37 °C): 87 µL/min/mg | half-life at 10 μM ([1]; male, rat, rat liver microsomes, pH 7.4, RLM 0.2 mg/mL, compound 10 μM, 37 °C, read-out: t½): 40 min | IC50 ([2]; antagonist mode): 0.0151 µM | α1D Profile ([2]; functional profile): ANT | IC50 ([3]; antagonist mode): 0.0421 µM | α1B Profile ([3]; functional profile): ANT | IC50 ([4]; antagonist mode): 0.0111 µM | α1A Profile ([4]; functional profile): ANT ^b | Ki [5]: 1.21 ± 0.099 µM
